Measurements as given in patent US20240189331A1, “NOVEL […] FILM FORMULATION” (INTELGENX CORP., priority 2021, published 2024).
Entries after “also recorded” stand apart in the source; their conditions may differ.

What was measured:
[1] = administered orally; cited from earlier work
[2] = cited from earlier work
[3] = In vitro permeability study in 6 station Franz diffusion cell apparatus using porcine buccal mucosa; conditions: for effect of acidifying agent in film formulation on permeation of psilocybin through pig mucosa membrane: psilocybin around its isoelectric point (pH=3.9)

CN(C)CCc1c[nH]c2cccc(OP(=O)(O)O)c12 [psilocybin, [3-(2-Dimethylaminoethyl)-1H-indol-4-yl]dihydrogen phosphate]
drug absorbed into the bloodstream [1]: about 50%
time of maximum plasma concentration [1]: approximately 80 minutes
pka1 ([2]; first phosphate oxygen): 1.3
pka2 ([2]; second phosphate oxygen): 6.5
pka3 ([2]; tertiary amine group): 10.4

Benzalkonium chloride [Benzalkonium chloride (BKC)]
effect of penetration enhancer on psilocybin diffusion through porcine buccal mucosa ([3]; penetration enhancer in psilocybin film formulation, FIG. 4 and FIG. 5): improved buccal permeation; also recorded: significate increase

O=P(O)(O)O [phosphoric acid]
effect of acidifying agent in film formulation on permeation of psilocybin through pig mucosa membrane [3]: triggers permeation

O=C(O)CC(O)(CC(=O)O)C(=O)O [citric acid]
effect of acidifying agent in film formulation on permeation of psilocybin through pig mucosa membrane [3]: triggers permeation
